We go through 15 compounds from US9890168B2, “2,4-disubstituted 7H-pyrrolo[2,3-d]pyrimidine derivative, preparation method and medicinal use thereof” (Shanghai Haiyan Pharmaceutical Technology Co., Ltd., priority 2014, dated 2018).

The test system of one assay is H1975 cells. The experiment in a line: Cell inhibitory activity by MTT assay, H1975 cells. The format is cell-based. The conditions noted are these: for IC50: cell growth, MTT assay, 72 hours; for Selective inhibitory activity against cell growth [IC50 (A431 cell)/IC50 (H1975 cell)]: ratio of MTT IC50 values. On the technique in general: Tetrazolium dyes change colour on reduction, which living cells bring about.

The subject of the next assay is NIH3T3 cells. The experiment in a line: Toxicity test on NIH3T3 cells by MTT assay. The format is cell-based.
The target in a further assay is wild-type EGFR kinase (Homo sapiens (Human), UniProt P00533). In words: z'-lyte assay of inhibition activity on wild-type EGFR kinase. The format is biochemical. The conditions noted are these: 10 μM ATP, 0.8 ng/μL kinase, read-out: EGFR WT (IC50/μM).
The target of assay [1] is EGFR phosphorylation in H1975 (EGFR T790M mutant) cells (Homo sapiens (Human), UniProt P00533, L858R/T790M). The experiment in a line: Inhibition of EGFR phosphorylation in H1975 cells (ELISA). In kind it is cell-based. The conditions noted are these: for IC50: EGFR phosphorylation, ELISA, 1 h compound treatment, read-out: H1975 cell (IC50/μM); for Selective inhibitory activity against targets at the cell level [IC50 (A431 cell)/IC50 (H1975 cell)]: ratio of ELISA IC50 values.
Protocol: (§1) The reagents used in the following methods, the preparation methods of solutions, the cell treatment and the preparation steps of lysate were carried out according to the instructions of R&D DYC3570, R&D DYC1095E and R&D DYC1095BE.
(2) The compounds to be tested were diluted in accordance with the drug dilution method in the MTT assay. 10 μL of the diluted compound solution or diluted DMSO was added to the corresponding wells of the cell culture plate, and the final concentration of DMSO was 0.5% (V/V). The plate was cultured at 37° C. in 5% (v/v) CO2 for 1 h. The cell culture system treated with DMSO alone was used as cell control.
(3) The medium was removed and then 100 μL of cell lysis solution was added. The plate was sealed and placed in a refrigerator at −80° C. overnight. The cell lysis buffer was used as blank control.
The assay was conducted according to the instructions given in R&D DYC1095E or R&D DYC1095BE.
(5) 40 μL of cell lysis buffer and 60 μL of cell lysis solution were added and the plate was incubated at 25° C. with shaking for 2 hours.
(§2) (7) The detection antibody was diluted with the detection antibody diluent in the proportion specified in the instructions of the kit. 100 μL of the diluent antibody was added to each well and the plate was incubated at 25° C. with shaking in dark for 1 h.
(9) A reagent and B reagent in the TMB substrate (R&D DY999) were mixed in 1:1. 100 μL of the mixture was added to each well and incubated in dark at 25° C. with shaking for 20 min.
(11) The plate was read with a microplate reader (Thermo Multiskan K3). OD 450 values and OD570 values of the cell control, blank control, and drug treatment wells were measured. ODcell, ODblank and ODdrug treatment were obtained by subtracting the corresponding OD570 value from the OD 450 value of the same well.
2.3 Data Analysis Inhibition rate (%)=100%×(ODcell−ODdrug treatment)/(ODcell−ODblank)

Assay [2] has as its target EGFR phosphorylation in A431 (EGFR wild-type) cells (Homo sapiens (Human), UniProt P00533). In words: Inhibition of EGFR phosphorylation in A431 cells (ELISA). The format is cell-based. The conditions noted are these: 1 h compound treatment, EGF stimulation, read-out: A431 cell (IC50/μM). A general note: ELISA stands for enzyme-linked immunosorbent assay.
Protocol: as §1
(2) The A431 cell culture medium was replaced with 90 μl of serum-free DMEM medium and the plate was cultured overnight.
(3) The compound to be tested was diluted according to the drug dilution method in MTT assay. 10 μL of the dilated compound solution or diluted DMSO was added to the corresponding wells of the cell culture plate, and the final concentration of DMSO was 0.5%. The plate was cultured at 37° C. in 5% CO2 for 1 hour. […] The cells without EGF and drugs were used as cell control, and the cells treated with EGF without drugs were used as EGF control.
(4) The medium was removed and then 100 μL, of the cell lysis solution was added. The plate was sealed and placed in a refrigerator at −80° C. overnight.
The assay was conducted according to the instructions given in R&D DYC3570E.
(5) 40 μL of cell lysis butler and 60 μL of cell lysis solution were added and the plate was incubated at 25° C. with shaking for 2 hours.
as §2
(9) A reagent and B reagent in TMB substrate (R&D DY999) were mixed in 1:1. 100 μL mixture was added to each well and incubated in dark at 25° C. with shaking tor 20 min.
(11) The plate was read with a microplate reader (Thermo Multiskan K3). OD 450 values and OD570 values of the cell control, blank control, and drug treatment wells were measured. ODEGF, ODdrug and ODcell were obtained by subtracting the corresponding OD570 value from the OD 450 value of the same well.
3.3 Data Analysis Inhibition rate (%)=100%×(ODEGF−ODdrug)/(ODEGF−ODcell)
For a further assay, the system named is A431 cells. In words: Cell inhibitory activity by MTT assay, A431 cells. In kind it is cell-based. The conditions noted are these: 72 hours.
Assay [3] deals with T790M mutant cell line H1975. The conditions noted are these: background statement; cited from earlier work.
Setting [4] is: Homo sapiens, A-431, cell growth.

Where a name gives a salt, the structure may show the parent alone.

Sequence of wild-type EGFR kinase (P00533 25-1210): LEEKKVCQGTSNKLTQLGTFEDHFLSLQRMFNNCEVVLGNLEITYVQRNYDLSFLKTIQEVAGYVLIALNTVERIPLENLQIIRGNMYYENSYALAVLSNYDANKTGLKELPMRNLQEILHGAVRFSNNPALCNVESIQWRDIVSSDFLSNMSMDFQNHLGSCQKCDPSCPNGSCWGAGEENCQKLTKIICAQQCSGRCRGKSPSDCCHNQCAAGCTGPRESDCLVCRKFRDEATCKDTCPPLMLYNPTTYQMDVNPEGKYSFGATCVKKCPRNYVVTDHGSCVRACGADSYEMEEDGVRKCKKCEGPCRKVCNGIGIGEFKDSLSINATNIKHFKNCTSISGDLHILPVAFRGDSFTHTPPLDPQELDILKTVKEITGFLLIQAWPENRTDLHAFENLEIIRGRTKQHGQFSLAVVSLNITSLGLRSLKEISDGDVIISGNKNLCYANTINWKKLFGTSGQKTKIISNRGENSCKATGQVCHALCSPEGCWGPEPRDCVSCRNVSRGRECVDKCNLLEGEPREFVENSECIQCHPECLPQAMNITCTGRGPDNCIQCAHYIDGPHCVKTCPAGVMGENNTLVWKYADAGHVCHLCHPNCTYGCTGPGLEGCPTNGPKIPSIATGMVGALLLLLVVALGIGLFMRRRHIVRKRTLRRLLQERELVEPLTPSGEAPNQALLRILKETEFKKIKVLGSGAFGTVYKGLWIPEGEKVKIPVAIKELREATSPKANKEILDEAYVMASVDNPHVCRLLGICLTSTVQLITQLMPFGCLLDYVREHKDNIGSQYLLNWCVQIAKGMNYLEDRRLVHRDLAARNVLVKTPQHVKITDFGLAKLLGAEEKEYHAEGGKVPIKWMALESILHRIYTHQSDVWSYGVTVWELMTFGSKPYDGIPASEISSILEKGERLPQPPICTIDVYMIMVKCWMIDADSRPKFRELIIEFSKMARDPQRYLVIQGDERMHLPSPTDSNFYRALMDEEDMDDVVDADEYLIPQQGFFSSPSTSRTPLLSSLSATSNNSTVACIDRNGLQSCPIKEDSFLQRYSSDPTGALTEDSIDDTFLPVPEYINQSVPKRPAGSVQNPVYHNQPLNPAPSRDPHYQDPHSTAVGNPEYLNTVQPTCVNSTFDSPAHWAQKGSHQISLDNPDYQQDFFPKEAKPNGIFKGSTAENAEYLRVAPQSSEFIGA
Sequence of EGFR phosphorylation in A431 (EGFR wild-type) cells (P00533 25-1210): as above
Sequence of EGFR phosphorylation in H1975 (EGFR T790M mutant) cells (P00533 25-1210 T790M/L858R): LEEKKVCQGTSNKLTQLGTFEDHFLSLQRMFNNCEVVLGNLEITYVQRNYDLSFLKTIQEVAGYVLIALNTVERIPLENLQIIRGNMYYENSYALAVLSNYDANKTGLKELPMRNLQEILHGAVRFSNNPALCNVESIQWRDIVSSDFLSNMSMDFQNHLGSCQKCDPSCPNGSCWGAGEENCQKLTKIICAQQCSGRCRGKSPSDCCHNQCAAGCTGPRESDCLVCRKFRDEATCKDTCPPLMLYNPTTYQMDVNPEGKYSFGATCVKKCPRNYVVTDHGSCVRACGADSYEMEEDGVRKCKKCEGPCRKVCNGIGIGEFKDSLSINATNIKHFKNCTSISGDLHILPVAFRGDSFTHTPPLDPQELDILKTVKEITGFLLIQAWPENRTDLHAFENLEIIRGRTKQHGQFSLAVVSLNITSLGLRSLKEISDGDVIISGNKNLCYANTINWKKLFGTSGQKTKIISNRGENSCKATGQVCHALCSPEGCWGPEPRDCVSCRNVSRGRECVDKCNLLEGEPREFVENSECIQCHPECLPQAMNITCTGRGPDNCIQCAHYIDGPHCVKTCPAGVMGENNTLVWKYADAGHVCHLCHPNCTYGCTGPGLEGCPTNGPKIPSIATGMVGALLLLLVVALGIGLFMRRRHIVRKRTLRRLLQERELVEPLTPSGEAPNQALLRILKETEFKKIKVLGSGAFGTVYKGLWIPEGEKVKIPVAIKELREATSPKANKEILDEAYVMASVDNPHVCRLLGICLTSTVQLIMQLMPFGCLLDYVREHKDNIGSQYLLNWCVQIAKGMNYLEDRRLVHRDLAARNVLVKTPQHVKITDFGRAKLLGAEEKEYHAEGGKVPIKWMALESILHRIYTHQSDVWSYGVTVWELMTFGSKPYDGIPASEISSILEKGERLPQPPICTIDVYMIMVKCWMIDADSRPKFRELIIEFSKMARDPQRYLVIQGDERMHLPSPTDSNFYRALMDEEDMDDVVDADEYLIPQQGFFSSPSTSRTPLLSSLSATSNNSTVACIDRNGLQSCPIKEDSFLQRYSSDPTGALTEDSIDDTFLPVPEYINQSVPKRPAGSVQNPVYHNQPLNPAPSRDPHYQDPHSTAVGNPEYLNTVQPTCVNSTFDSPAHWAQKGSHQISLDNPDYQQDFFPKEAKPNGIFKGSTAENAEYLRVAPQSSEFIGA
Protocol for NIH3T3 cells: After the first wash, 1.5 mL of trypsin/EDTA was added to digest the adherent cells until the cells detached. Then 3.5 mL of the culture medium was added to terminate the digestion. The digested cell suspension was transferred to a 15 mL centrifuge tube and centrifuged at 1300 rpm for 3 minutes. The supernatant was discarded and the cells were resuspended in fresh medium. The cells were then counted and diluted to the following concentrations: 27,800 cells per milliliter of H1975 cells, 33,300 cells per milliliter of A431 cells and NIH3T3 cells.
After the drug was added, the cells were incubated in an incubator for 72 hours. 10 μL of 5 mg/ml MTT (Sigma, M5655) solution was added to each well. The 96-well plate was then incubated in a 37° C. and 5% CO2 incubator for 4 h.
The plate was then centrifuged at 2000 rpm for 5 min. After the supernatant was removed, 150 μl of DMSO was added to each well and the plate was shaken in a shaker until all crystal violet was dissolved.
Protocol for wild-type EGFR kinase: All reagents used in the following z′-lyte assay were purchased from Invitrogen.
The working concentrations of each component in 10 μL wild-type EGER kinase reaction system were: 10 μM ATP, 0.8 ng/μL wild-type EGFR kinase, 2 μM Tyr04 substrate (Invitrogen, PV3193). The concentration of DMSO after addition of the compound to be tested was 2 vol %.
10 mM drug stock solution was dissolved at room temperature and diluted to a final concentration of 4-0.002 μM with 8 vol % DMSO solution. […] Then 2.5 μl of ATP was added to initiate the reaction. Wherein, ATP was replaced by the reaction buffer in C1 well, no drug was added to C2 well, and the phosphorylated substrate was added to C3 well according to the instructions. The mixture was allowed to react at 25° C. in a shaker in dark for 60 min, 5 μL of Development Reagent B (invitrogen, diluted with TR-FRET dilution buffer) was added and allowed to react at room temperature in the shaker for 60 minutes.
The inhibition rate was calculated according to the following method (refer to the instructions of Invitronen, PV3193):
1. ER=Coumarin Emission (450 nm)/Fluorescein Emission (520 mn)
3. Inhibition ratio (IR)=(1−(phospholylation ratio of the test compound)/(phosphorylation ratio of C2))×100%
The half-inhibitory concentration IC50 was obtained through fitting calculation by using XLFIT 5.0 software (IDBS, UK).

On to `CN(C)C/C=C/C(=O)Nc1cc2c(Nc3ccc(F)c(Cl)c3)ncnc2cc1O[C@H]1CCOC1` [BIBW2992, reference compound], for which the IC50 in the assay on H1975 cells (Homo sapiens, NCI-H1975) amounted to 0.088 µM; in the assay with NIH3T3 cells (Mus musculus, NIH3T3, 72 hours) it was 2.75 µM.
Take `C=CC(=O)Nc1cc(Nc2nc(-c3cnn(C)c3)c3cc[nH]c3n2)c(OC)cc1N(C)CCN(C)C` [Compound 1, N-(2-((2-(dimethylamino)ethyl)(methyl)amino)-4-methoxy-5-(4(1-methyl-1H-pyrazol-4-yl)-7H-pyrrolo[2,3-d]pyrimidn-2-ylamino)phenyl)acrylamide]: the IC50 on wild-type EGFR kinase was 0.393 µM; in assay [1], 0.112 µM; in assay [2], 3.67 µM; with H1975 cells (Homo sapiens, NCI-H1975), 0.043 µM; in the assay with A431 cells (setting [4]) it was 1.56 µM; in the assay with NIH3T3 cells (Mus musculus, NIH3T3, 72 hours), greater than 10 µM. Moreover, the “Selective inhibitory activity against targets at the cell level [IC50 (A431 cell)/IC50 (H1975 cell)]” value in assay [1] was determined as 32.7. Also, in the assay on H1975 cells, the “Selective inhibitory activity against cell growth [IC50 (A431 cell)/IC50 (H1975 cell)]” value came out at 36.3.
Regarding `C=CC(=O)Nc1cc(Nc2nc(N3CCOCC3)c3cc[nH]c3n2)c(OC)cc1N(C)CCN(C)C` [Compound 2, N-(2-((2-(dimethylamino)ethyl)(methyl)amino)-4-methoxy-5-(4-morpholino-7H-pyrrolo[2,3-d]pyrimidin-2-ylamino)phenyl)acrylamide], the IC50 on wild-type EGFR kinase was greater than 1 µM; in assay [1] it was 0.322 µM; in assay [2], greater than 10 µM; with H1975 cells (Homo sapiens, NCI-H1975), 0.143 µM; in the assay with A431 cells (setting [4]), 4.01 µM; in the assay with NIH3T3 cells (Mus musculus, NIH3T3, 72 hours) it was greater than 10 µM. For the same compound, the “Selective inhibitory activity against targets at the cell level [IC50 (A431 cell)/IC50 (H1975 cell)]” value in assay [1] stood at 31. In addition, the “Selective inhibitory activity against cell growth [IC50 (A431 cell)/IC50 (H1975 cell)]” value in the assay with H1975 cells is given as 28.
As for `C=CC(=O)Nc1cc(Nc2nc(OC3CN(S(C)(=O)=O)C3)c3cc[nH]c3n2)c(OC)cc1N(C)CCN(C)C` [Compound 3, N-(2-((2-(dimethylamino)ethyl)(methyl)amino)-4-methoxy-5-(4-(1-(methylsulfonyl)azetidin-3-yloxy)-7H-pyrrolo[2,3-d]pyrimidin-2-ylamino)phenyl)acryl amide], the IC50 on wild-type EGFR kinase is 0.088 µM; in assay [1], 0.032 µM; in assay [2], 0.86 µM; in the assay on H1975 cells it was 0.029 µM; in the assay on A431 cells (cell growth), 2.93 µM; in the assay on NIH3T3 cells (72 hours), greater than 10 µM. Besides, in assay [1], the “Selective inhibitory activity against targets at the cell level [IC50 (A431 cell)/IC50 (H1975 cell)]” value is on record as 26.9. The “Selective inhibitory activity against cell growth [IC50 (A431 cell)/IC50 (H1975 cell)]” value with H1975 cells was determined as 101.
For the compound `C=CC(=O)Nc1cc(Nc2nc(-c3cnc4c(ccn4C)c3)c3cc[nH]c3n2)c(OC)cc1N(C)CCN(C)C` [Compound 4, N-(2-((2-(dimethylamino)ethyl)(methyl)amino)-4-methoxy-5-(4-(1-methyl-1H-pyrrolo[2,3-b]pyridin-5-yl)-7H-pyrrolo[2,3-d]pyrimidin-2-ylamino)phenyl)acrylamide], the IC50 on wild-type EGFR kinase came out at 0.039 µM; in assay [1] it was 0.015 µM; in assay [2] it was 0.254 µM; in the assay with H1975 cells (Homo sapiens, NCI-H1975), 0.029 µM; in the assay on A431 cells (setting [4]) it was 1.12 µM; with NIH3T3 cells (Mus musculus, NIH3T3, 72 hours) it was 2.09 µM. The “Selective inhibitory activity against targets at the cell level [IC50 (A431 cell)/IC50 (H1975 cell)]” value in assay [1] came out at 17. The “Selective inhibitory activity against cell growth [IC50 (A431 cell)/IC50 (H1975 cell)]” value in the assay with H1975 cells came out at 38.7.
Turning to `C=CC(=O)Nc1cc(Nc2nc(-c3cn(C)c4ccccc34)c3cc[nH]c3n2)c(OC)cc1N(C)CCN(C)C` [Compound 5, N-(2-((2-(dimethylamino)ethyl)(methyl)amino)-4-methoxy-5-(4-(1-methyl-1H-indol-3-yl)-7H-pyrrolo[2,3-d]pyrimidin-2-ylamino)phenyl)acrylamide], the IC50 at wild-type EGFR kinase is 0.015 µM; in assay [1] it was 0.016 µM; in assay [2], 0.119 µM; with H1975 cells (Homo sapiens, NCI-H1975), 0.009 µM; in the assay with A431 cells (setting [4]), 0.308 µM; with NIH3T3 cells (Mus musculus, NIH3T3, 72 hours), 2.63 µM. In addition, the “Selective inhibitory activity against targets at the cell level [IC50 (A431 cell)/IC50 (H1975 cell)]” value in assay [1] was determined as 7.4. In addition, the “Selective inhibitory activity against cell growth [IC50 (A431 cell)/IC50 (H1975 cell)]” value with H1975 cells is 34.2.
For the compound `C=CC(=O)Nc1cc(Nc2nc(-c3cccnc3)c3cc[nH]c3n2)c(OC)cc1N(C)CCN(C)C` [Compound 6, N-(2-((2-(dimethylamino)ethyl)(methyl)amino)-4-methoxy-5-(4-(pyridin-3-yl)-7H-pyrrolo[2,3-d]pyrimidin-2ylamino)phenyl)acrylamide], the IC50 on wild-type EGFR kinase stood at 0.347 µM; in assay [1], 0.096 µM; in assay [2], 1.67 µM; in the assay on H1975 cells (Homo sapiens, NCI-H1975) it was 0.079 µM; in the assay with A431 cells (setting [4]), 1.8 µM; with NIH3T3 cells (Mus musculus, NIH3T3, 72 hours), 5.1 µM. Moreover, the “Selective inhibitory activity against targets at the cell level [IC50 (A431 cell)/IC50 (H1975 cell)]” value in assay [1] is given as 17.4. Moreover, the “Selective inhibitory activity against cell growth [IC50 (A431 cell)/IC50 (H1975 cell)]” value in the assay on H1975 cells is recorded as 22.8.
For the compound `C=CC(=O)Nc1cc(Nc2nc(-c3ccccc3)c3cc[nH]c3n2)c(OC)cc1N(C)CCN(C)C` [Compound 7, N-(2-((2-(dimethylamino)ethyl)(methyl)amino)-4-methoxy-5-(4-phenyl-7H-pyrrolo[2,3-d]pyrimidin-2-ylamino)phenyl)acrylamide], the IC50 came out at 0.315 µM on wild-type EGFR kinase; 0.204 µM in assay [1]; 1.87 µM in assay [2]; 0.225 µM in the assay on H1975 cells (Homo sapiens, NCI-H1975); 1.69 µM in the assay on A431 cells (setting [4]); 2.42 µM in the assay with NIH3T3 cells (Mus musculus, NIH3T3, 72 hours). Also, the “Selective inhibitory activity against targets at the cell level [IC50 (A431 cell)/IC50 (H1975 cell)]” value in assay [1] stood at 9.2. Further, the “Selective inhibitory activity against cell growth [IC50 (A431 cell)/IC50 (H1975 cell)]” value with H1975 cells is recorded as 7.5.
Turning to `C=CC(=O)Nc1cc(Nc2nc(-c3cnn(C)c3)c3cc[nH]c3n2)c(OC)cc1N1CCC(N(C)C)CC1` [Compound 9, N-(2-(4-(dimethylamino)piperidin-1-yl)-4-methoxy-5-(4-(1-methyl-1H-pyrazol-4-yl)-7H-pyrrolo[2,3-D]pyrimidin-2-ylamino)phenyl)acrylamide], the IC50 on wild-type EGFR kinase is greater than 1 µM; in assay [1], 0.384 µM; in assay [2] it was greater than 10 µM; in the assay with H1975 cells (Homo sapiens, NCI-H1975), 0.3 µM; in the assay on A431 cells (setting [4]), 4.34 µM; in the assay with NIH3T3 cells (Mus musculus, NIH3T3, 72 hours), greater than 10 µM. The “Selective inhibitory activity against targets at the cell level [IC50 (A431 cell)/IC50 (H1975 cell)]” value in assay [1] is recorded as greater than 26. Moreover, in the assay with H1975 cells, the “Selective inhibitory activity against cell growth [IC50 (A431 cell)/IC50 (H1975 cell)]” value was found to be 14.5.
Regarding `C=CC(=O)Nc1cc(Nc2nc(-c3cnn(C)c3)c3cc[nH]c3n2)c(OC)cc1OCCN(C)C` [Compound 10, N-(2-(2-(dimethylamino)etboxy)-4-methoxy-5-(4-(1-methyl-1H-pyrazol-4-yl)-7H-pyrrolo[2,3-d]pyrimidin-2-ylamino)phenyl)acrylamide], the IC50 in assay [1] is 0.166 µM; in assay [2], 8.98 µM; in the assay with H1975 cells (Homo sapiens, NCI-H1975) it was 0.112 µM; with A431 cells (setting [4]), 3.8 µM; in the assay on NIH3T3 cells (Mus musculus, NIH3T3, 72 hours), greater than 10 µM. For the same compound, the “Selective inhibitory activity against targets at the cell level [IC50 (A431 cell)/IC50 (H1975 cell)]” value in assay [1] came out at 54.1. For the same compound, the “Selective inhibitory activity against cell growth [IC50 (A431 cell)/IC50 (H1975 cell)]” value in the assay with H1975 cells was determined as 34.
Take `C=CC(=O)Nc1cc(Nc2nc(-c3cnn(C)c3)c3cc[nH]c3n2)c(OC)cc1N1CC(N(C)C)C1` [Compound 11, N-(2-(3-(dimethylamino)azetidin-1-yl)-4-methoxy-5-(4-(1-methyl-1H-pyrazol-4-yl)-7H-pyrrolo[2,3-d]pyrimidin-2-ylamino)phenyl)acrylamide Formate]: on wild-type EGFR kinase, the IC50 is greater than 1 µM.
For `C=CC(=O)Nc1cc(Nc2nc(-c3cnn(C)c3)c3cc[nH]c3n2)c(OC)cc1N1CCN(C)CC1` [Compound 12, N-(4-methoxy-5-(4-(1-methyl-1H-pyrazol-4-yl)-7H-pyrrolo[2,3-d]pyrimidin-2-ylamino)-2-(4-methylpiperazin-1-yl)phenyl)acrylamide], the IC50 on wild-type EGFR kinase was greater than 1 µM.
`C=CC(=O)Nc1cc(Nc2nc(-c3cnn(C)c3)c3c(Cl)c[nH]c3n2)c(OC)cc1N1CCC(N(C)C)CC1` [Compound 13, N-(5-(5-chloro-4-(1-methyl-1H-pyrazol-4-yl)-7H-pyrrolo[2,3-d]pyrimidin-2-ylamino)-2-(4(dimethylamino)piperidin-1-yl)-4-methoxyphenyl)acrylamide]: the IC50 was 0.531 µM with H1975 cells (Homo sapiens, NCI-H1975); 3.04 µM in the assay on A431 cells (setting [4]); greater than 10 µM with NIH3T3 cells (Mus musculus, NIH3T3, 72 hours).
For `C#Cc1cccc(Nc2ncnc3cc(OCCOC)c(OCCOC)cc23)c1` [erlotinib], in assay [3], the “activity in the T790M mutant cell line H1975” value is “greater than 3 uM”.
Consider `COc1cc2ncnc(Nc3ccc(F)c(Cl)c3)c2cc1OCCCN1CCOCC1` [gefitinib], for which the “activity in the T790M mutant cell line H1975” value in assay [3] is “greater than 3 uM”.
